Earlier results in patent EP2397122A2, “Formulations of neramexane dosage forms” (Merz Pharma GmbH & Co. KGaA, priority 2004, dated 2006).

elimination half-life (T½) (man): 60 to 80 h
absolute bioavailability (oral administration in man): approximately 100%
SMILES: CC12CC3CC(C)(C1)CC(N)(C3)C2 [memantine, 1-amino-3,5-dimethyladamantane]
